Test results published in ChEMBL document CHEMBL1275578, “Genotypic versus phenotypic characterization, with respect to beta-lactam susceptibility, of Haemophilus influenzae isolates exhibiting decreased susceptibility to beta-lactam resistance markers” (2009).
Converted amounts (≈) assume the structure as drawn.

What was measured:
Type in all cases: functional
Haemophilus influenzae [1] = assay: Antimicrobial activity against beta-lactamase positive, ampicillin-clavulanic acid resistant Haemophilus influenzae expressing […] mutant gene assessed as resistant isolates by microdilution method in presence of beta-lactamase inhibitor clavulanic acid
Haemophilus influenzae [2] = assay: Antimicrobial activity against beta-lactamase positive, ampicillin-clavulanic acid resistant Haemophilus influenzae expressing […] mutant gene by microdilution method in presence of beta-lactamase inhibitor clavulanic acid
Haemophilus influenzae [3] = assay: Antimicrobial activity against beta-lactamase negative, ampicillin-resistant Haemophilus influenzae expressing […] mutant gene assessed as resistant isolates by microdilution method in presence of beta-lactamase inhibitor clavulanic acid
Haemophilus influenzae [4] = assay: Antimicrobial activity against beta-lactamase negative, ampicillin-resistant Haemophilus influenzae expressing […] mutant gene by microdilution method in presence of beta-lactamase inhibitor clavulanic acid
Haemophilus influenzae [5] = assay: Antimicrobial activity against beta-lactamase positive Haemophilus influenzae expressing […] gene assessed as resistant isolates by microdilution method in presence of beta-lactamase inhibitor clavulanic acid
Haemophilus influenzae [6] = assay: Antimicrobial activity against beta-lactamase positive Haemophilus influenzae expressing […] gene by microdilution method in presence of beta-lactamase inhibitor clavulanic acid
Haemophilus influenzae [7] = assay: Antimicrobial activity against beta-lactamase negative Haemophilus influenzae expressing […] gene by microdilution method in presence of beta-lactamase inhibitor clavulanic acid
Haemophilus influenzae [8] = assay: Antimicrobial activity against beta-lactamase positive, ampicillin-clavulanic acid resistant Haemophilus influenzae expressing […] mutant gene assessed as resistant isolates by microdilution method
Haemophilus influenzae [9] = assay: Antimicrobial activity against beta-lactamase negative, ampicillin-resistant Haemophilus influenzae expressing […] mutant gene assessed as resistant isolates by microdilution method
Haemophilus influenzae [10] = assay: Antimicrobial activity against beta-lactamase negative, ampicillin-resistant Haemophilus influenzae expressing […] mutant gene by microdilution method
Haemophilus influenzae [11] = assay: Antimicrobial activity against beta-lactamase positive Haemophilus influenzae expressing […] gene assessed as resistant isolates by microdilution method
Haemophilus influenzae [12] = assay: Antimicrobial activity against beta-lactamase positive Haemophilus influenzae expressing […] gene by microdilution method
Haemophilus influenzae [13] = assay: Antimicrobial activity against beta-lactamase negative Haemophilus influenzae expressing […] gene assessed as resistant isolates by microdilution method
Haemophilus influenzae [14] = assay: Antimicrobial activity against beta-lactamase negative Haemophilus influenzae expressing […] gene by microdilution method
Haemophilus influenzae [15] = assay: Antimicrobial activity against beta-lactamase positive, ampicillin-clavulanic acid resistant Haemophilus influenzae expressing […] mutant gene by microdilution method

| Compound | Activity (Haemophilus influenzae [8]) [%] | Activity (Haemophilus influenzae [9]) [%] | MIC50 (Haemophilus influenzae [10]) [µg/mL] | MIC90 (Haemophilus influenzae [10]) [µg/mL] | Activity (Haemophilus influenzae [11]) [%] | MIC50 (Haemophilus influenzae [12]) [µg/mL] | MIC90 (Haemophilus influenzae [12]) [µg/mL] | Activity (Haemophilus influenzae [13]) [%] | MIC50 (Haemophilus influenzae [14]) [µg/mL] | MIC90 (Haemophilus influenzae [14]) [µg/mL] | MIC50 (Haemophilus influenzae [15]) [µg/mL] | MIC90 (Haemophilus influenzae [15]) [µg/mL] | further results |
| --- | --- | --- | --- | --- | --- | --- | --- | --- | --- | --- | --- | --- | --- |
| CC1(C)S[C@@H]2[C@H](NC(=O)[C@H](N)c3ccc(O)cc3)C(=O)N2[C@H]1C(=O)O [AMOXICILLIN] | – | – | – | – | – | – | – | – | – | – | – | – | Activity (Haemophilus influenzae [1]): 25%; MIC50 (Haemophilus influenzae [2]): 4 µg/mL; MIC90 (Haemophilus influenzae [2]): 8 µg/mL; Activity (Haemophilus influenzae [3]): 9.9%; MIC50 (Haemophilus influenzae [4]): 2 µg/mL; MIC90 (Haemophilus influenzae [4]): 4 µg/mL; Activity (Haemophilus influenzae [5]): 4.8%; MIC50 (Haemophilus influenzae [6]): 2 µg/mL; MIC90 (Haemophilus influenzae [6]): 4 µg/mL; MIC50 (Haemophilus influenzae [7]): 0.5 µg/mL; MIC90 (Haemophilus influenzae [7]): 4 µg/mL |
| CC1(C)S[C@@H]2[C@H](NC(=O)[C@H](N)c3ccccc3)C(=O)N2[C@H]1C(=O)O [AMPICILLIN] | 95.5 | 98.3 | 2 (≈ 5.72 µM) | 4 (≈ 11.4 µM) | 100 | ≥ 128 | ≥ 128 | 30 | 1 (≈ 2.86 µM) | 2 (≈ 5.72 µM) | – | – | – |
| N[C@@H](C(=O)N[C@@H]1C(=O)N2C(C(=O)O)=C(Cl)CS[C@H]12)c1ccccc1 [CEFACLOR ANHYDROUS] | 86.4 | 70.2 | 32 (≈ 87 µM) | – | 76.2 | 32 (≈ 87 µM) | ≥ 128 | 40 | 8 (≈ 21.8 µM) | 32 (≈ 87 µM) | 32 | 64 | – |
| C=CC1=C(C(=O)O)N2C(=O)[C@@H](NC(=O)/C(=N\O)c3csc(N)n3)[C@H]2SC1 [CEFDINIR] | 52.3 | 57 | 2 (≈ 5.06 µM) | 8 (≈ 20.2 µM) | 33.3 | 0.5 (≈ 1.26 µM) | 4 (≈ 10.1 µM) | 40 | 1 (≈ 2.53 µM) | 4 (≈ 10.1 µM) | 2 | 4 | – |
| CO/N=C(\C(=O)N[C@@H]1C(=O)N2C(C(=O)OCOC(=O)C(C)(C)C)=C(/C=C\c3scnc3C)CS[C@H]12)c1csc(N)n1 [CEFDITOREN PIVOXIL] | – | – | 0.06 (≈ 0.0967 µM) | 0.06 (≈ 0.0967 µM) | – | 0.03 (≈ 0.0483 µM) | 0.06 (≈ 0.0967 µM) | – | 0.03 (≈ 0.0483 µM) | 0.06 (≈ 0.0967 µM) | 0.03 | 0.06 | – |
| CO/N=C(\C(=O)N[C@@H]1C(=O)N2C(C(=O)O)=C(COC(C)=O)CS[C@H]12)c1csc(N)n1 [CEFOTAXIME] | 0 | 0.8 | 0.06 (≈ 0.132 µM) | 0.5 (≈ 1.1 µM) | 0 | 0.03 (≈ 0.0659 µM) | 0.06 (≈ 0.132 µM) | 0 | 0.03 (≈ 0.0659 µM) | 0.25 (≈ 0.549 µM) | 0.03 | 0.25 | – |
| CO/N=C(\C(=O)N[C@@H]1C(=O)N2C(C(=O)O)=C(COC(N)=O)CS[C@H]12)c1ccco1 [CEFUROXIME] | 45.4 | 48.8 | 4 (≈ 9.43 µM) | 16 (≈ 37.7 µM) | 19 | 2 (≈ 4.71 µM) | 8 (≈ 18.9 µM) | 20 | 1 (≈ 2.36 µM) | 8 (≈ 18.9 µM) | 4 | 16 | – |
